Experimental data: US8952024B2, “Herbicidal pyrimidone derivatives” (E I du Pont de Nemours and Company, priority 2009, dated 2015)

What was measured:
Type in all cases: in vivo
[1] = tested on: morningglory (Ipomoea coccinea); experiment: Test B pre-/postemergence plant response; settings: for Morningglory plant response rating (0 to 100 scale): 62 g ai/ha, 0 is no effect, 13 to 15 days
Procedure, shortened: (§1)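 Visual ratings on a 0–100 scale (100 = complete control) were made versus untreated controls 13–15 days after treatment in a greenhouse. Compounds in surfactant-containing non-phytotoxic solvent were applied preemergence to seeds in loam–sand blend or postemergence to 1- to 4-leaf plants (2–18 cm).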

[2] = tested on: bermudagrass (Cynodon dactylon); experiment: Test B pre-/postemergence plant response; settings: for Bermudagrass plant response rating (0 to 100 scale): 62 g ai/ha, 0 is no effect, 13 to 15 days
Procedure, shortened: as §1

[3] = tested on: ducksalad (Heteranthera limosa); experiment: Test B flooded paddy test; settings: for Plant response rating, Flood, Ducksalad: 250 g ai/ha, flooded paddy test, visual rating on 0 to 100 scale (0 no effect, 100 complete control) after 13 to 15 days; for Plant response rating, Ducksalad: Flood (flooded paddy test), 13 to 15 days; for Ducksalad plant response rating: Flood, 31 g ai/ha, scale 0 to 100 (0 no effect, 100 complete control)
Procedure, shortened: (§2)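 Ratings are visual, 0–100 (100 = complete control), taken versus untreated controls 13 to 15 days after treatment in the greenhouse. Compound went straight into paddy water held 3 cm above soil, applied to 2-leaf-stage plants of four species.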

rice (Oryza sativa) = experiment: Test B flooded paddy test; settings: for Plant response rating, Flood, Rice: 250 g ai/ha, flooded paddy test, visual rating on 0 to 100 scale (0 no effect, 100 complete control) after 13 to 15 days; for Plant response rating, Rice: Flood (flooded paddy test), 13 to 15 days; for Rice plant response rating: Flood, 31 g ai/ha, scale 0 to 100 (0 no effect, 100 complete control)
Procedure, shortened: as §2

[4] = tested on: barnyardgrass (Echinochloa crus-galli); experiment: Test B flooded paddy test; settings: for Plant response rating, Flood, Barnyardgrass: 250 g ai/ha, flooded paddy test, visual rating on 0 to 100 scale (0 no effect, 100 complete control) after 13 to 15 days; for Plant response rating, Barnyardgrass: Flood (flooded paddy test), 13 to 15 days; for Barnyardgrass plant response rating: Flood, 31 g ai/ha, scale 0 to 100 (0 no effect, 100 complete control)
Procedure, shortened: as §2

[5] = tested on: umbrella sedge (Cyperus difformis); experiment: Test B flooded paddy test; settings: for Plant response rating, Flood, Sedge, Umbrella: 250 g ai/ha, flooded paddy test, visual rating on 0 to 100 scale (0 no effect, 100 complete control) after 13 to 15 days; for Plant response rating, Sedge, Umbrella: Flood (flooded paddy test), 13 to 15 days; for Sedge, Umbrella plant response rating: Flood, 31 g ai/ha, scale 0 to 100 (0 no effect, 100 complete control)
Procedure, shortened: as §2

[6] = tested on: windgrass (Apera spica-venti); experiment: Test B postemergence plant response; settings: for Windgrass plant response rating (0 to 100 scale): 62 g ai/ha, 0 is no effect, 13 to 15 days
Procedure, shortened: (§3)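 Plants at the 1- to 4-leaf stage (2 to 18 cm tall), grown in pots of peat moss/vermiculite medium with wetting agent and starter nutrients, received postemergence applications of test chemicals. After 13 to 15 days in a greenhouse, injury was rated visually against untreated controls on a 0 (no effect) to 100 (complete control) scale.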

[7] = tested on: winter barley (Hordeum vulgare); experiment: Test B postemergence plant response; settings: for Barley plant response rating (0 to 100 scale): 62 g ai/ha, 0 is no effect, 13 to 15 days
Procedure, shortened: as §3

[8] = tested on: canarygrass (Phalaris minor); experiment: Test B postemergence plant response; settings: for Canarygrass plant response rating (0 to 100 scale): 62 g ai/ha, 0 is no effect, 13 to 15 days
Procedure, shortened: as §3

[9] = tested on: chickweed (Stellaria media); experiment: Test B postemergence plant response; settings: for Chickweed plant response rating (0 to 100 scale): 62 g ai/ha, 0 is no effect, 13 to 15 days
Procedure, shortened: as §3

[10] = 31 g ai/ha, postemergence, scale 0 to 100, 0 is no effect, 100 is complete control
[11] = postemergence, 100 is complete control
[12] = Postemergence, 125 g ai/ha, scale 0 to 100 (0 no effect, 100 complete control)
[13] = Postemergence, 250 g ai/ha, scale 0 to 100 (0 no effect, 100 complete control)
[14] = 62 g ai/ha, scale of 0 to 100 where 0 is no effect and 100 is complete control
[15] = 125 g ai/ha, scale 0 to 100, 0 is no effect, 100 is complete control
[16] = Postemergence, 125 g ai/ha, visual rating after 13 to 15 days, scale 0 (no effect) to 100 (complete control)

Row | Compound | Plant response rating, Morningglory [1, 10] | Morningglory plant response rating (0 to 100 scale) [1, 11] | Plant response rating, Morningglory [1, 13] | Plant response rating, Bermudagrass [2, 10] | Bermudagrass plant response rating (0 to 100 scale) [2, 11] | Plant response rating, Bermudagrass [2, 13] | Plant response rating, Flood, Ducksalad [3] | Plant response rating, Ducksalad [3, 14] | Plant response rating, Ducksalad [3, 15] | Ducksalad plant response rating [3] | Plant response rating, Flood, Rice (rice (Oryza sativa)) | Plant response rating, Rice (rice (Oryza sativa); [14]) | Plant response rating, Rice (rice (Oryza sativa); [15]) | Rice plant response rating (rice (Oryza sativa)) | Plant response rating, Flood, Barnyardgrass [4] | Plant response rating, Barnyardgrass [4, 14] | Plant response rating, Barnyardgrass [4, 15] | Barnyardgrass plant response rating [4] | Plant response rating, Flood, Sedge, Umbrella [5] | Plant response rating, Sedge, Umbrella [5, 14] | further results
1 | O=C1CCCC(O)=C1C(=O)c1cnc(-c2ccsc2)n(C2CCCCC2)c1=O [Compound 99] | 100 | 100 | 100 | 75 | 75 | 98 | 80 | 40 | 75 | 30 | 60 | 0 | 0 | 0 | 55 | 20 | 20 | 0 | 85 | 50 | Plant response rating, Morningglory [1, 12]: 100; Plant response rating, Bermudagrass [2, 12]: 80; Plant response rating, Sedge, Umbrella [5, 15]: 65; Sedge, Umbrella plant response rating [5]: 50; Windgrass plant response rating (0 to 100 scale) [6, 11]: 5; Plant response rating, Windgrass [6, 12]: 10; Plant response rating, Windgrass [6, 13]: 60; Plant response rating, Barley [7, 10]: 5; Barley plant response rating (0 to 100 scale) [7, 11]: 5; Plant response rating, Barley [7, 12]: 10; Plant response rating, Barley [7, 13]: 30; Plant response rating, Canarygrass [8, 10]: 40; Canarygrass plant response rating (0 to 100 scale) [8, 11]: 60; Plant response rating, Canarygrass [8, 12]: 60; Plant response rating, Canarygrass [8, 13]: 70; Plant response rating, Chickweed [9, 10]: 80; Chickweed plant response rating (0 to 100 scale) [9, 11]: 98; Plant response rating, Chickweed [9, 12]: 98; Plant response rating, Chickweed [9, 13]: 98
2 | CCCCCCn1c(-c2ccccc2)ncc(C(=O)C2=C(O)CCCC2=O)c1=O [Compound 94] | 55 | 75 | 100 | 80 | 80 | 98 | 30 | 20 | 25 | 0 | 35 | 0 | 20 | 0 | 60 | 0 | 40 | 0 | 85 | 70 | Plant response rating, Bermudagrass [2, 16]: 98; Plant response rating, Sedge, Umbrella [5, 15]: 85; Sedge, Umbrella plant response rating [5]: 20; Plant response rating, Windgrass [6, 10]: 0; Windgrass plant response rating (0 to 100 scale) [6, 11]: 40; Plant response rating, Windgrass [6, 13]: 50; Plant response rating, Barley [7, 10]: 0; Barley plant response rating (0 to 100 scale) [7, 11]: 0; Plant response rating, Barley [7, 16]: 5; Plant response rating, Barley [7, 13]: 5; Plant response rating, Canarygrass [8, 10]: 0; Canarygrass plant response rating (0 to 100 scale) [8, 11]: 5; Plant response rating, Canarygrass [8, 16]: 30; Plant response rating, Canarygrass [8, 13]: 35; Plant response rating, Chickweed [9, 10]: 95; Chickweed plant response rating (0 to 100 scale) [9, 11]: 100; Plant response rating, Chickweed [9, 16]: 100; Plant response rating, Chickweed [9, 13]: 100
